Bounds are passed on as bounds.

Results on 16 compounds are retold here after patent US20230132823A1, “BI-FUNCTIONAL COMPOUNDS AND METHODS FOR TARGETED UBIQUITINATION OF ANDROGEN RECEPTOR” (MONTELINO THERAPEUTICS, INC., priority 2020, published 2023).

This assay relates to 22Rv1. The experiment in a line: 22Rv1 cell proliferation assay (Experimental Example 1, cell count). Type of assay: cell-based. Conditions: Homo sapiens, 22Rv1, read-out: 22Rv1 cell count decrease at 10 μM for 48 hours; 10 μM (method: four days); read-out: 22Rv1 cell count decrease at 10 μM. Here is the method: The human prostate cancer cell line, 22Rv1 has been reported to express a high level of AR-V7. […] Standard culture media was RPMI-1640 supplemented with 10% fetal bovine serum. The test compound initially was dissolved in DMSO at 50 mM. This stock solution was then diluted as needed for the indicated concentrations. […]
In the Table: (+)—the cell count decreased between 0 and 20%; (++)—the cell count decreased […]; (+++)—the cell count decreased by more than 50%.
In the case of `O=C(COc1c(-c2csc(N3CCOCC3)n2)ccc(F)c1F)NCCCCCCCCNc1cccc2c1C(=O)N(C1CCC(=O)NC1=O)C2=O` (stereo not shown) [Example 2, 2-(2,3-difluoro-6-(2-morpholinothiazol-4-yl)phenoxy)-N-(8-((2-(2,6-dioxopiperidin-3-yl)-1,3-dioxoisoindolin-4-yl)amino)octyl)acetamide], the inhibition at 10 µM was in the range of 0 to 20%.
Consider `O=C(COc1c(-c2csc(N3CCOCC3)n2)ccc(F)c1F)NCCOCCOCCNc1cccc2c1C(=O)N(C1CCC(=O)NC1=O)C2=O` (stereo not shown) [Example 4, 2-(2,3-difluoro-6-(2-morpholinothiazol-4-yl)phenoxy)-N-(2-(2-(2-((2-(2,6-dioxopiperidin-3-yl)-1,3-dioxoisoindolin-4-yl)amino)ethoxy)ethoxy)ethyl)acetamide], for which the inhibition at 10 µM is 0 to 20%.
Consider `O=C(COc1c(-c2csc(N3CCOCC3)n2)ccc(F)c1F)NCCOCCOCCOCCNc1cccc2c1C(=O)N(C1CCC(=O)NC1=O)C2=O` (stereo not shown) [Example 5, 2-(2,3-difluoro-6-(2-morpholinothiazol-4-yl)phenoxy)-N-(2-(2-(2-(2-((2-(2,6-dioxopiperidin-3-yl)-1,3-dioxoisoindolin-4-yl)amino)ethoxy)ethoxy)ethoxy)ethyl)acetamide], for which the inhibition at 10 µM was 0 to 20%.
For `O=C(COc1c(-c2csc(N3CCOCC3)n2)ccc(F)c1F)NCCOCCOCCOCCOCCNc1cccc2c1C(=O)N(C1CCC(=O)NC1=O)C2=O` (stereo not shown) [Example 6, 2-(2,3-difluoro-6-(2-morpholinothiazol-4-yl)phenoxy)-N-(14-((2-(2,6-dioxopiperidin-3-yl)-1,3-dioxoisoindolin-4-yl)amino)-3,6,9,12-tetraoxatetradecyl)acetamide] the value was 0 to 20%.
The value for `O=C(COc1cccc2c1C(=O)N(C1CCC(=O)NC1=O)C2=O)NCCCCCCNC(=O)COc1c(-c2csc(N3CCOCC3)n2)ccc(F)c1F` (stereo not shown) [Example 7, 2-(2,3-difluoro-6-(2-morpholinothiazol-4-yl)phenoxy)-N-(6-(2-((2-(2,6-dioxopiperidin-3-yl)-1,3-dioxoisoindolin-4-yl)oxy)acetamido)hexyl)acetamide] was 0 to 20%.
Take `O=C(COc1cccc2c1C(=O)N(C1CCC(=O)NC1=O)C2=O)NCCCCCCCCNC(=O)COc1c(-c2csc(N3CCOCC3)n2)ccc(F)c1F` (stereo not shown) [Example 8, 2-(2,3-difluoro-6-(2-morpholinothiazol-4-yl)phenoxy)-N-(8-(2-((2-(2,6-dioxopiperidin-3-yl)-1,3-dioxoisoindolin-4-yl)oxy)acetamido)octyl)acetamide]: the inhibition at 10 µM was in the range of 0 to 20%.
For `O=C(COc1cccc2c1C(=O)N(C1CCC(=O)NC1=O)C2=O)NCCCCCCCCCCNC(=O)COc1c(-c2csc(N3CCOCC3)n2)ccc(F)c1F` (stereo not shown) [Example 9, 2-(2,3-difluoro-6-(2-morpholinothiazol-4-yl)phenoxy)-N-(10-(2-((2-(2,6-dioxopiperidin-3-yl)-1,3-dioxoisoindolin-4-yl)oxy)acetamido)decyl)acetamide] the value was 0 to 20%.
For `O=C(COc1cccc2c1C(=O)N(C1CCC(=O)NC1=O)C2=O)NCCOCCOCCNC(=O)COc1c(-c2csc(N3CCOCC3)n2)ccc(F)c1F` (stereo not shown) [Example 10, 2-(2,3-difluoro-6-(2-morpholinothiazol-4-yl)phenoxy)-N-(2-(2-(2-(2-((2-(2,6-dioxopiperidin-3-yl)-1,3-dioxoisoindolin-4-yl)oxy)acetamido)ethoxy)ethoxy)ethyl)acetamide] the value was 0 to 20%.
The value for `O=C(COc1cccc2c1C(=O)N(C1CCC(=O)NC1=O)C2=O)NCCOCCOCCOCCNC(=O)COc1c(-c2csc(N3CCOCC3)n2)ccc(F)c1F` (stereo not shown) [Example 11, 2-(2,3-difluoro-6-(2-morpholinothiazol-4-yl)phenoxy)-N-(1-((2-(2,6-dioxopiperidin-3-yl)-1,3-dioxoisoindolin-4-yl)oxy)-2-oxo-6,9,12-trioxa-3-azatetradecan-14-yl)acetamide] was 0 to 20%.
For the compound `O=C1CCC(N2C(=O)c3cccc(NCCOCCOCCOc4c(-c5csc(N6CCOCC6)n5)ccc(F)c4F)c3C2=O)C(=O)N1` (stereo not shown) [Example 12, 4-((2-(2-(2-(2,3-difluoro-6-(2-morpholinothiazol-4-yl)phenoxy)ethoxy)ethoxy)ethyl)amino)-2-(2,6-dioxopiperidin-3-yl)isoindoline-1,3-dione], the inhibition at 10 µM fell in the range of 0 to 20%.
For the compound `O=C1CCC(N2C(=O)c3cccc(NCCOCCOCCOCCOc4c(-c5csc(N6CCOCC6)n5)ccc(F)c4F)c3C2=O)C(=O)N1` (stereo not shown) [Example 13, 4-((2-(2-(2-(2-(2,3-difluoro-6-(2-morpholinothiazol-4-yl)phenoxy)ethoxy)ethoxy)ethoxy)ethyl)amino)-2-(2,6-dioxopiperidin-3-yl)isoindoline-1,3-dione], the inhibition at 10 µM is 0 to 20%.
For `O=C(COc1cccc2c1C(=O)N(C1CCC(=O)NC1=O)C2=O)NCCOCCOCCOCCOCCOc1c(-c2csc(N3CCOCC3)n2)ccc(F)c1F` (stereo not shown) [Example 14, N-(14-(2,3-difluoro-6-(2-morpholinothiazol-4-yl)phenoxy)-3,6,9,12-tetraoxatetradecyl)-2-((2-(2,6-dioxopiperidin-3-yl)-1,3-dioxoisoindolin-4-yl)oxy)acetamide] the value was 0 to 20%; for `Cc1ncsc1-c1ccc([C@H](C)NC(=O)[C@@H]2C[C@@H](O)CN2C(=O)[C@@H](NC(=O)CCCNC(=O)COc2c(-c3csc(N4CCOCC4)n3)ccc(F)c2F)C(C)(C)C)cc1` [Example 15, (2S,4R)-1-((S)-2-(4-(2-(2,3-difluoro-6-(2-morpholinothiazol-4-yl)phenoxy)acetamido)butanamido)-3,3-dimethylbutanoyl)-4-hydroxy-N-((S)-1-(4-(4-methylthiazol-5-yl)phenyl)ethyl)pyrrolidine-2-carboxamide], below 50%.
For `Cc1ncsc1-c1ccc([C@H](C)NC(=O)[C@@H]2C[C@@H](O)CN2C(=O)[C@@H](NC(=O)CCCCCNC(=O)COc2c(-c3csc(N4CCOCC4)n3)ccc(F)c2F)C(C)(C)C)cc1` [Example 17, (2S,4R)-1-((S)-2-(6-(2-(2,3-difluoro-6-(2-morpholinothiazol-4-yl)phenoxy)acetamido)hexanamido)-3,3-dimethylbutanoyl)-4-hydroxy-N-((S)-1-(4-(4-methylthiazol-5-yl)phenyl)ethyl)pyrrolidine-2-carboxamide] the value was below 50%; for `Cc1ncsc1-c1ccc([C@H](C)NC(=O)[C@@H]2C[C@@H](O)CN2C(=O)[C@@H](NC(=O)CCCCCCNC(=O)COc2c(-c3csc(N4CCOCC4)n3)ccc(F)c2F)C(C)(C)C)cc1` [Example 18, (2S,4R)-1-((S)-2-(7-(2-(2,3-difluoro-6-(2-morpholinothiazol-4-yl)phenoxy)acetamido)heptanamido)-3,3-dimethylbutanoyl)-4-hydroxy-N-((S)-1-(4-(4-methylthiazol-5-yl)phenyl)ethyl)pyrrolidine-2-carboxamide], below 50%.
The value for `Cc1ncsc1-c1ccc([C@H](C)NC(=O)[C@@H]2C[C@@H](O)CN2C(=O)[C@@H](NC(=O)COCCCNC(=O)COc2c(-c3csc(N4CCOCC4)n3)ccc(F)c2F)C(C)(C)C)cc1` [Example 19, (2S,4R)-1-((S)-2-(2-(3-(2-(2,3-difluoro-6-(2-morpholinothiazol-4-yl)phenoxy)acetamido)propoxy)acetamido)-3,3-dimethylbutanoyl)-4-hydroxy-N-((S)-1-(4-(4-methylthiazol-5-yl)phenyl)ethyl)pyrrolidine-2-carboxamide] was below 50%.
